Results reported in PubChem BioAssay (NCI).
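Cultured in 96-well plates, cells were exposed to test compound for 48 hours across five concentrations. GI50 is the concentration that inhibits growth by half. TGI denotes the concentration required for complete inhibition of growth.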

Tests used:
Test in all cases: NCI tumour cell line growth inhibition, 48 h
SK-OV-3 ovarian = system: SK-OV-3 ovarian
SNB-19 CNS = system: SNB-19 CNS
ACHN renal = system: ACHN renal
786-0 renal = system: 786-0 renal
SK-MEL-2 melanoma = system: SK-MEL-2 melanoma
EKVX NSCLC = system: EKVX NSCLC
KM12 colon = system: KM12 colon
SF-268 CNS = system: SF-268 CNS
HOP-92 NSCLC = system: HOP-92 NSCLC
NCI-H226 lung = system: NCI-H226 lung

Row | Compound | TGI (SK-OV-3 ovarian) [µM] | TGI (SNB-19 CNS) [µM] | TGI (ACHN renal) [µM] | TGI (786-0 renal) [µM] | TGI (SK-MEL-2 melanoma) [µM] | TGI (EKVX NSCLC) [µM] | TGI (KM12 colon) [µM] | TGI (SF-268 CNS) [µM] | TGI (HOP-92 NSCLC) [µM] | GI50 (SK-OV-3 ovarian) [µM] | GI50 (NCI-H226 lung) [µM] | TGI (NCI-H226 lung) [µM] | GI50 (SNB-19 CNS) [µM] | GI50 (ACHN renal) [µM] | GI50 (786-0 renal) [µM] | GI50 (SK-MEL-2 melanoma) [µM] | GI50 (KM12 colon) [µM] | GI50 (HOP-92 NSCLC) [µM] | GI50 (SF-268 CNS) [µM] | GI50 (EKVX NSCLC) [µM]
1 | N#C/C(=C/c1ccc2c(c1)OCO2)C(=O)c1ccccc1 | > 100 | > 100 | > 100 | > 100 | > 100 | > 100 | > 100 | > 100 |  |  |  |  |  |  |  |  |  |  |  | 
2 | N/C(=N\N=C\c1ccc(C(F)(F)F)cc1)NO | > 100 |  | 25.6 | 37.7 | 92 | 33.7 | > 100 | 61 | 58.8 |  |  |  |  |  |  |  |  |  |  | 
3 | Cc1cccc2nc3ccccc3c(Nc3ccc(NS(C)(=O)=O)cc3)c12 | 55.5 | 56.2 | 11 | 16.6 | 31.8 |  | 22.4 | 30.2 | 11.1 | 6.22 | 2.2 | 7.15 | 6.98 | 2.69 | 5.03 | 16.9 | 6.19 | 2.17 | 10.2 | 
4 | COC12C=C/C(=C(/C(=O)OCc3ccccn3)C(=O)CCCCCCCCC3(OC)C=C/C(=C(/C(=O)OCc4ccccn4)C(=O)CCCCCCCC1)O3)O2 | 60.9 | > 100 |  | 1.05 | 3.85 | 3.72 | 1.39 | 4.81 | 3.54 | 0.889 | 0.25 | 0.648 | 1.43 |  | 0.326 | 1.18 | 0.354 | 1.65 | 1.12 | 0.614
5 | CCCCCCCCCCCCCC[N+](C)(C)CCCCCCCCCCCCCC | 19.7 | 10 | 6.85 | 4.92 |  |  |  | 8.38 |  | 3.6 |  |  | 2.38 | 2.62 | 2.02 |  |  |  | 2.92 | 
6 | COc1ccc2c(c1)nc(C(=O)c1ccco1)c(C(F)(F)F)[n+]2[O-] | > 100 | > 100 | > 100 | > 100 | > 100 | > 100 | > 100 | > 100 |  | > 100 | > 100 | > 100 | > 100 | > 100 | 29.2 | > 100 | > 100 |  | 83.8 | > 100
7 | NCCCC[C@@H]1NC(=O)[C@H](CC(=O)O)NC(=O)CNC(=O)[C@H](CCCN=C(N)N)NC(=O)[C@@H](N)CSSC[C@@H](C(=O)O)NC(=O)[C@H](CC(=O)O)NC(=O)[C@@H]2CCCN2C(=O)CNC1=O | > 100 | > 100 | > 100 | > 100 |  | > 100 | > 100 | > 100 | > 100 | > 100 | > 100 | > 100 | > 100 | > 100 | > 100 |  | > 100 | > 100 | > 100 | > 100
8 | CCC(C)[C@H](NC(=O)Nc1cc(C(F)(F)F)cc(C(F)(F)F)c1)C(=O)N[C@@H](Cc1cn(C)cn1)C(=O)OC (stereo not given in full) | 1.82 | 1.52 | 2.01 | 1.88 | 1.89 |  | 1.83 | 1.16 | 1.89 | 1.38 | 0.571 | 1.29 | 0.672 | 1.4 | 1.19 | 1.4 | 0.788 | 1.31 | 0.61 | 
9 | Cc1ccc(/C=N/Nc2nc(Nc3ccccc3)nc(-n3nc(C)cc3C)n2)cc1 | > 100 |  | 56.6 | 36.9 | 27 | 31.5 | 13.1 | > 100 | 10.9 | 11.8 | 4.88 | 37.7 |  | 4.44 | 3.7 | 5.72 | 3.28 | 2.28 | 4.42 | 3
10 | CC(=O)[O-].Cn1ccnc1CNCc1nccn1C.[Cu+2].[O-][Cl+3]([O-])([O-])[O-] | > 100 | > 100 |  | > 100 |  | > 100 | > 100 | > 100 |  | > 100 | > 100 | > 100 | > 100 |  | > 100 |  | > 100 |  | > 100 | > 100
11 | COC(=O)C1=C(O)[C@H](C(=O)OC)C2(O)C(C(=O)OC)[C@H](c3ccc(OC(=O)C(C)c4ccc(CC(C)C)cc4)cc3)C[C@@H]1[C@@H]2C(=O)OC (stereo not given in full) | > 50 | > 50 | 31.3 | > 50 | > 50 | 6.7 | > 50 | > 50 | > 50 | 38.5 |  |  | 40 | 12 | 20.4 | 24.9 | 40.3 | 32.8 | > 50 | 0.97
12 | COc1cc(/C=N/Nc2ncnc3c2cnn3-c2ccccc2)ccc1O | > 25 | > 25 | > 25 | > 25 | 20.6 | > 25 | > 25 | > 25 |  | 9.88 | > 25 | > 25 | > 25 | 7.93 | > 16.2 | 5.85 | 1.64 |  | > 18.4 | > 25
13 | COc1ccc2c(c1)[nH]c(=O)c1c3cccc(F)c3cn21 | > 83.5 | > 69.6 | > 100 | > 86.1 | > 100 | > 100 | > 100 | 44.7 |  | 0.0848 | 12.1 | 44.7 | 0.218 | 0.0576 | 0.0665 | 0.469 | 0.0436 |  | 0.0749 | 1.27
14 | Cc1cc2c(C)n(Cc3ccccc3Cl)nc2c(C(=O)O)c1C | > 100 | > 100 | > 100 | > 100 | > 100 | > 100 |  | > 100 | > 100 |  |  | > 100 |  |  |  |  |  |  |  | 
15 | O=C1/C=C(/c2ccc(O)cc2)[C@@H](O)Cc2ccc(O)cc2O1 | > 100 | > 100 | > 100 | > 100 | > 100 | > 100 | > 100 | > 100 |  |  |  | 89.6 |  |  |  |  |  |  |  | 
